The record followed here is ChEMBL document CHEMBL1156145, “1-(2-Aminoethyl)-3-(arylsulfonyl)-1H-pyrrolopyridines are 5-HT(6) receptor ligands” (Bioorg Med Chem Lett, 2009).

Assay [1] has as its target T1, 5-hydroxytryptamine receptor 6 (Homo sapiens, UniProt P50406). Nature of the assay: Displacement of [3H]LSD from human HT6 receptor expressed in HeLa cells at 1 uM relative to serotonin. The class given is cell-based.
Assay [2] deals with T1, 5-hydroxytryptamine receptor 6. Nature of the assay: Agonist activity at human HT6 receptor expressed in human HeLa cells assessed as intracellular cAMP level by radioimmunoassay relative to serotonin. The format is functional, cell-based.
The target is the same in assay [3]. The assay can be described thus: Displacement of [3H]LSD from human HT6 receptor expressed in human HeLa cells. The format is cell-based.
Assay [4] has the same target. Nature of the assay: Antagonistic activity at human HT6 receptor expressed in HeLa cells assessed as intracellular cAMP level by radioimmunoassay. The format is functional, cell-based.
The target is the same in assay [5]. Nature of the assay: Antagonistic activity at human HT6 receptor expressed in HeLa cells assessed as intracellular cAMP level by radioimmunoassay relative to serotonin. The class given is functional, cell-based.
Assay [6] shares this target. Nature of the assay: Agonistic activity at human HT6 receptor expressed in HeLa cells assessed as intracellular cAMP level by radioimmunoassay.

T1 sequence (P50406 whole entry): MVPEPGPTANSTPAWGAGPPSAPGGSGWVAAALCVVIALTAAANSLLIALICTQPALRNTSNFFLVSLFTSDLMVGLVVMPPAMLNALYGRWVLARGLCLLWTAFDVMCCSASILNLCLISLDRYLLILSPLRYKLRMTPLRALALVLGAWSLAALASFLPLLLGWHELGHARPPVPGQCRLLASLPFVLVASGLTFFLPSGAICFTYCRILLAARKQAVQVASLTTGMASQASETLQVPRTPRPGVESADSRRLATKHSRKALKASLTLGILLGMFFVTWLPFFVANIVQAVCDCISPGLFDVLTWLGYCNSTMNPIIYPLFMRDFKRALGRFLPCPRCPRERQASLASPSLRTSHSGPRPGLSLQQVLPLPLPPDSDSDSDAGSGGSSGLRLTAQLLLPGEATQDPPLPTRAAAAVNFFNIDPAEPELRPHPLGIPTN

Regarding `CN(C)CCn1cc(S(=O)(=O)c2ccccc2)c2cnccc21`, in assay [1], the Activity worked out at 39%.
In the case of `CN(C)CCn1cc(S(=O)(=O)c2cccc(F)c2)c2cccnc21`, the Emax in assay [2] is 100%.
In assay [3], `CC(=O)c1ccc2c(n1)c(S(=O)(=O)c1ccc(Br)cc1)cn2CCN(C)C` came in with a Ki of 0.0039 µM. Moreover, the IC50 in assay [4] is 0.385 µM. Also, the Imax in assay [5] was found to be 100%.
`CC(=O)c1ccc2c(n1)c(S(=O)(=O)c1ccccc1)cn2CCN(C)C` registered an inhibition constant (Ki) in assay [3] of 0.056 µM.
On to `CN(C)CCn1cc(S(=O)(=O)c2ccccc2)c2cc(Cl)ncc21`, for which the Activity in assay [1] came to 55%.
As to `Cc1cccc(S(=O)(=O)c2cn(CCN)c3cccnc23)c1`, the affinity in assay [3], expressed as Ki, was 0.046 µM.
Consider `NCCn1cc(S(=O)(=O)c2cccc(F)c2)c2ncccc21`, for which the affinity in assay [3] corresponds to a Ki of 0.076 µM. For the same compound, the Emax in assay [2] is 51%. Also, in assay [6], the EC50 came out at 0.823 µM.
Consider `COc1ccc2c(n1)c(S(=O)(=O)c1cccc(F)c1)cn2CCN(C)C`, for which the inhibition constant Ki in assay [3] stood at 0.0113 µM. In addition, in assay [4], the IC50 came to 0.041 µM. Besides, the maximal response (Emax) in assay [5] was 91%.
For `CN(C)CCn1cc(S(=O)(=O)c2ccccc2)c2cccnc21`, the Emax in assay [2] is 94%.
Take `NCCn1cc(S(=O)(=O)c2c(Cl)nc3sccn23)c2ncccc21`: in assay [3], the Ki was 0.042 µM.
On to `NCCn1cc(S(=O)(=O)c2cccc(Cl)c2)c2ncccc21`, for which, in assay [3], the Ki stood at 0.035 µM. In addition, the Emax in assay [2] came out at 56%. Besides, the EC50 in assay [6] came to 0.197 µM.
In assay [3], `CN(C)CCn1cc(S(=O)(=O)c2ccccc2)c2ncccc21` showed a Ki of 0.368 µM.
With `COc1ccc2c(n1)c(S(=O)(=O)c1cccc3ccccc13)cn2CCN(C)C`, the Ki in assay [3] came to 0.0017 µM. The IC50 in assay [4] came out at 0.295 µM. Also, the Emax in assay [5] is 100%.
